± gives the expanded uncertainty stated by the source.
Assay: xn = mol fraction of the nth substance listed
Conditions: 100 kPa, Liquid; for viscosity: Falling or rolling sphere viscometry; for mass density: Vibrating tube method

CCCC[N+]1(C)CCOCC1.[Br-] [4-butyl-4-methylmorpholinium bromide] + O
Conditions | mass density [kg/m3] | viscosity [mPa·s]
298.15 K, x1 = 0.0017 | 1002.2 ± 1.2 | –
298.15 K, x1 = 0.0033 | 1007.1 ± 1.2 | –
298.15 K, x1 = 0.0066 | 1016.8 ± 1.2 | –
298.15 K, x1 = 0.0088 | 1022.9 ± 1.1 | –
298.15 K, x1 = 0.0167 | 1043.3 ± 1.1 | –
298.15 K, x1 = 0.034 | 1081.4 ± 1.1 | –
298.15 K, x1 = 0.0363 | 1086 ± 1.1 | 1.96 ± 0.2
298.15 K, x1 = 0.0601 | 1125.3 ± 1 | 3.204 ± 0.32
298.15 K, x1 = 0.0988 | 1170.8 ± 1 | 6.179 ± 0.62
298.15 K, x1 = 0.1242 | 1192 ± 1 | 9.576 ± 0.96
298.15 K, x1 = 0.154 | 1211.4 ± 1.1 | 15.07 ± 1.5
298.15 K, x1 = 0.2027 | 1234.7 ± 1.1 | 32.61 ± 3.3
298.15 K, x1 = 0.2383 | 1247.4 ± 1.2 | 57.4 ± 5.8
298.15 K, x1 = 0.2569 | 1252.8 ± 1.2 | 81.23 ± 8.2
298.15 K, x1 = 0.3007 | 1263.9 ± 1.3 | 159.1 ± 17
303.15 K, x1 = 0.0017 | 1000.7 ± 1.2 | –
303.15 K, x1 = 0.0033 | 1005.6 ± 1.2 | –
303.15 K, x1 = 0.0066 | 1015.2 ± 1.2 | –
303.15 K, x1 = 0.0088 | 1021.3 ± 1.1 | –
303.15 K, x1 = 0.0167 | 1041.5 ± 1.1 | –
303.15 K, x1 = 0.034 | 1079.1 ± 1.1 | –
303.15 K, x1 = 0.0363 | 1083.7 ± 1.1 | 1.715 ± 0.17
303.15 K, x1 = 0.0601 | 1122.6 ± 1 | 2.745 ± 0.28
303.15 K, x1 = 0.0988 | 1167.7 ± 1 | 5.16 ± 0.52
303.15 K, x1 = 0.1242 | 1188.7 ± 1 | 7.888 ± 0.79
303.15 K, x1 = 0.154 | 1208.1 ± 1.1 | 12.19 ± 1.2
303.15 K, x1 = 0.2027 | 1231.3 ± 1.1 | 25.31 ± 2.5
303.15 K, x1 = 0.2383 | 1244 ± 1.2 | 42.75 ± 4.3
303.15 K, x1 = 0.2569 | 1249.4 ± 1.2 | 60.27 ± 6.1
303.15 K, x1 = 0.3007 | 1260.5 ± 1.3 | 113.5 ± 12
308.15 K, x1 = 0.0017 | 999.1 ± 1.2 | –
308.15 K, x1 = 0.0033 | 1003.9 ± 1.2 | –
308.15 K, x1 = 0.0066 | 1013.4 ± 1.2 | –
308.15 K, x1 = 0.0088 | 1019.5 ± 1.1 | –
308.15 K, x1 = 0.0167 | 1039.5 ± 1.1 | –
308.15 K, x1 = 0.034 | 1076.7 ± 1.1 | –
308.15 K, x1 = 0.0363 | 1081.3 ± 1.1 | 1.5 ± 0.15
308.15 K, x1 = 0.0601 | 1119.7 ± 1 | 2.367 ± 0.24
308.15 K, x1 = 0.0988 | 1164.5 ± 1 | 4.353 ± 0.44
308.15 K, x1 = 0.1242 | 1185.4 ± 1 | 6.566 ± 0.66
308.15 K, x1 = 0.154 | 1204.7 ± 1 | 9.969 ± 1
308.15 K, x1 = 0.2027 | 1227.9 ± 1.1 | 20 ± 2
308.15 K, x1 = 0.2383 | 1240.7 ± 1.2 | 32.82 ± 3.3
308.15 K, x1 = 0.2569 | 1246.1 ± 1.2 | 45.77 ± 4.6
308.15 K, x1 = 0.3007 | 1257.2 ± 1.3 | 82.89 ± 8.4
313.15 K, x1 = 0.0017 | 997.2 ± 1.2 | –
313.15 K, x1 = 0.0033 | 1002 ± 1.2 | –
313.15 K, x1 = 0.0066 | 1011.4 ± 1.1 | –
313.15 K, x1 = 0.0088 | 1017.4 ± 1.1 | –
313.15 K, x1 = 0.0167 | 1037.3 ± 1.1 | –
313.15 K, x1 = 0.034 | 1074.2 ± 1.1 | –
313.15 K, x1 = 0.0363 | 1078.7 ± 1.1 | 1.323 ± 0.13
313.15 K, x1 = 0.0601 | 1116.8 ± 1 | 2.061 ± 0.21
313.15 K, x1 = 0.0988 | 1161.3 ± 1 | 3.716 ± 0.37
313.15 K, x1 = 0.1242 | 1182.1 ± 1 | 5.497 ± 0.55
313.15 K, x1 = 0.154 | 1201.3 ± 1 | 8.279 ± 0.83
313.15 K, x1 = 0.2027 | 1224.5 ± 1.1 | 16.07 ± 1.6
313.15 K, x1 = 0.2383 | 1237.3 ± 1.1 | 25.69 ± 2.6
313.15 K, x1 = 0.2569 | 1242.7 ± 1.2 | 35.46 ± 3.6
313.15 K, x1 = 0.3007 | 1253.9 ± 1.3 | 62.18 ± 6.2
318.15 K, x1 = 0.0017 | 995.2 ± 1.2 | –
318.15 K, x1 = 0.0033 | 999.9 ± 1.2 | –
318.15 K, x1 = 0.0066 | 1009.3 ± 1.1 | –
318.15 K, x1 = 0.0088 | 1015.3 ± 1.1 | –
318.15 K, x1 = 0.0167 | 1034.9 ± 1.1 | –
318.15 K, x1 = 0.034 | 1071.5 ± 1.1 | –
318.15 K, x1 = 0.0363 | 1076 ± 1.1 | 1.175 ± 0.12
318.15 K, x1 = 0.0601 | 1113.8 ± 1 | 1.81 ± 0.18
318.15 K, x1 = 0.0988 | 1158 ± 1 | 3.204 ± 0.32
318.15 K, x1 = 0.1242 | 1178.7 ± 1 | 4.65 ± 0.47
318.15 K, x1 = 0.154 | 1197.9 ± 1 | 6.951 ± 0.7
318.15 K, x1 = 0.2027 | 1221.1 ± 1.1 | 13.12 ± 1.3
318.15 K, x1 = 0.2383 | 1233.9 ± 1.1 | 20.44 ± 2.1
318.15 K, x1 = 0.2569 | 1239.3 ± 1.2 | 28.04 ± 2.8
318.15 K, x1 = 0.3007 | 1250.6 ± 1.3 | 47.76 ± 4.8
323.15 K, x1 = 0.0017 | 993 ± 1.2 | –
323.15 K, x1 = 0.0033 | 997.7 ± 1.2 | –
323.15 K, x1 = 0.0066 | 1007 ± 1.1 | –
323.15 K, x1 = 0.0088 | 1012.9 ± 1.1 | –
323.15 K, x1 = 0.0167 | 1032.5 ± 1.1 | –
323.15 K, x1 = 0.034 | 1068.8 ± 1.1 | –
323.15 K, x1 = 0.0363 | 1073.2 ± 1.1 | 1.039 ± 0.1
323.15 K, x1 = 0.0601 | 1110.8 ± 1 | 1.578 ± 0.16
323.15 K, x1 = 0.0988 | 1154.6 ± 1 | 2.745 ± 0.28
323.15 K, x1 = 0.1242 | 1175.3 ± 1 | 3.912 ± 0.39
323.15 K, x1 = 0.154 | 1194.4 ± 1 | 5.805 ± 0.58
323.15 K, x1 = 0.2027 | 1217.7 ± 1.1 | 10.72 ± 1.1
323.15 K, x1 = 0.2383 | 1230.5 ± 1.1 | 16.36 ± 1.6
323.15 K, x1 = 0.2569 | 1235.9 ± 1.2 | 22.35 ± 2.2
323.15 K, x1 = 0.3007 | 1247.2 ± 1.3 | 36.9 ± 3.7
328.15 K, x1 = 0.0017 | 990.6 ± 1.2 | –
328.15 K, x1 = 0.0033 | 995.3 ± 1.2 | –
328.15 K, x1 = 0.0066 | 1004.5 ± 1.1 | –
328.15 K, x1 = 0.0088 | 1010.4 ± 1.1 | –
328.15 K, x1 = 0.0167 | 1029.8 ± 1.1 | –
328.15 K, x1 = 0.034 | 1065.9 ± 1.1 | –
328.15 K, x1 = 0.0363 | 1070.1 ± 1.1 | 0.923 ± 0.093
328.15 K, x1 = 0.0601 | 1107.6 ± 1 | 1.387 ± 0.14
328.15 K, x1 = 0.0988 | 1151.2 ± 1 | 2.377 ± 0.24
328.15 K, x1 = 0.1242 | 1171.8 ± 1 | 3.323 ± 0.33
328.15 K, x1 = 0.154 | 1191 ± 1 | 4.888 ± 0.49
328.15 K, x1 = 0.2027 | 1214.3 ± 1.1 | 8.882 ± 0.89
328.15 K, x1 = 0.2383 | 1227.1 ± 1.1 | 13.28 ± 1.3
328.15 K, x1 = 0.2569 | 1232.5 ± 1.2 | 18.01 ± 1.8
328.15 K, x1 = 0.3007 | 1243.9 ± 1.3 | 29.03 ± 2.9
333.15 K, x1 = 0.0017 | 988.1 ± 1.2 | –
333.15 K, x1 = 0.0033 | 992.7 ± 1.1 | –
333.15 K, x1 = 0.0066 | 1001.9 ± 1.1 | –
333.15 K, x1 = 0.0088 | 1007.8 ± 1.1 | –
333.15 K, x1 = 0.0167 | 1027.1 ± 1.1 | –
333.15 K, x1 = 0.034 | 1062.9 ± 1.1 | –
333.15 K, x1 = 0.0363 | 1067.3 ± 1.1 | 0.83 ± 0.083
333.15 K, x1 = 0.0601 | 1104.4 ± 1 | 1.233 ± 0.12
333.15 K, x1 = 0.0988 | 1147.8 ± 1 | 2.082 ± 0.21
333.15 K, x1 = 0.1242 | 1168.4 ± 1 | 2.867 ± 0.29
333.15 K, x1 = 0.154 | 1187.5 ± 1 | 4.16 ± 0.42
333.15 K, x1 = 0.2027 | 1210.8 ± 1.1 | 7.465 ± 0.75
333.15 K, x1 = 0.2383 | 1223.7 ± 1.1 | 10.98 ± 1.1
333.15 K, x1 = 0.2569 | 1229.1 ± 1.2 | 14.86 ± 1.5
333.15 K, x1 = 0.3007 | 1240.5 ± 1.3 | 23.47 ± 2.4
338.15 K, x1 = 0.0017 | 985.4 ± 1.2 | –
338.15 K, x1 = 0.0033 | 990 ± 1.1 | –
338.15 K, x1 = 0.0066 | 999.2 ± 1.1 | –
338.15 K, x1 = 0.0088 | 1005 ± 1.1 | –
338.15 K, x1 = 0.0167 | 1024.2 ± 1.1 | –
338.15 K, x1 = 0.034 | 1059.9 ± 1.1 | –
338.15 K, x1 = 0.0363 | 1064.3 ± 1.1 | 0.751 ± 0.075
338.15 K, x1 = 0.0601 | 1101.1 ± 1 | 1.106 ± 0.11
338.15 K, x1 = 0.0988 | 1144.3 ± 1 | 1.836 ± 0.18
338.15 K, x1 = 0.1242 | 1164.8 ± 1 | 2.502 ± 0.25
338.15 K, x1 = 0.154 | 1184 ± 1 | 3.568 ± 0.36
338.15 K, x1 = 0.2027 | 1207.3 ± 1.1 | 6.337 ± 0.64
338.15 K, x1 = 0.2383 | 1220.3 ± 1.1 | 9.093 ± 0.91
338.15 K, x1 = 0.2569 | 1225.8 ± 1.2 | 12.32 ± 1.2
338.15 K, x1 = 0.3007 | 1237.2 ± 1.3 | 19.19 ± 1.9
343.15 K, x1 = 0.0017 | 982.6 ± 1.1 | –
343.15 K, x1 = 0.0033 | 987.2 ± 1.1 | –
343.15 K, x1 = 0.0066 | 996.3 ± 1.1 | –
343.15 K, x1 = 0.0088 | 1002.1 ± 1.1 | –
343.15 K, x1 = 0.0167 | 1021.2 ± 1.1 | –
343.15 K, x1 = 0.034 | 1056.7 ± 1.1 | –
343.15 K, x1 = 0.0363 | 1061.1 ± 1.1 | 0.685 ± 0.069
343.15 K, x1 = 0.0601 | 1097.5 ± 1 | 0.992 ± 0.1
343.15 K, x1 = 0.0988 | 1140.8 ± 1 | 1.633 ± 0.16
343.15 K, x1 = 0.1242 | 1161.3 ± 1 | 2.288 ± 0.23
343.15 K, x1 = 0.154 | 1180.4 ± 1 | 3.149 ± 0.32
343.15 K, x1 = 0.2027 | 1203.8 ± 1.1 | 5.442 ± 0.55
343.15 K, x1 = 0.2383 | 1216.8 ± 1.1 | 7.452 ± 0.75
343.15 K, x1 = 0.2569 | 1222.4 ± 1.2 | 10.42 ± 1.1
343.15 K, x1 = 0.3007 | 1233.8 ± 1.3 | 15.92 ± 1.6

— the NIST ThermoML archive (doi:10.1016/j.jct.2016.03.030)
